Experimental findings from ChEMBL document CHEMBL3751730, “Synthesis and in vitro antitumor evaluation of dihydroartemisinin-cinnamic acid ester derivatives” (Eur J Med Chem, 2016) are described below.

Activity calls are given as the source filed them. The rule behind the calls is not given here.

The nature of series [1]: Antiproliferative activity against human MDA-MB-435S cells after 72 hrs by MTT assay. It is filed as functional, cell-based. Background: Tetrazolium dyes change colour on reduction, which living cells bring about.
Series [2] is described as follows: Antiproliferative activity against human SGC7901 cells after 72 hrs by MTT assay. The class given is functional, cell-based. The conditions noted are these: SGC-7901, 72 h.
Series [3] in a line: Cytotoxicity against human L02 cells after 72 hrs by MTT assay. The conditions noted are these: L02, 72 h. It is filed as cell-based.
The subject of series [4] is A549. Briefly: Antiproliferative activity against human A549 cells after 72 hrs by MTT assay. It is filed as functional, cell-based. The conditions noted are these: A549, 72 h.
A short description of series [5]: Antiproliferative activity against human PC3 cells after 72 hrs by MTT assay. It is filed as functional, cell-based. Particulars: PC-3, 72 h.
A short description of series [6]: Selectivity index, ratio of IC50 for human L02 cells to IC50 for human A549 cells. The class given is functional.
Series [7] is described as follows: Drug degradation at 2 to 4 mg at 210 to 220 degC by thermogravimetric analysis in the presence of nitrogen gas. It is filed as physicochemical. The conditions noted are these: for degraded: in vivo, read-out: Drug degradation.
The nature of series [8]: Chemical stability of the compound at 2 to 4 mg at 25 to 300 degC by differential scanning […] analysis in the presence of nitrogen gas. The class given is physicochemical.
Series [9] has as its system A549. As to the kind of experiment: Antiproliferative activity against human A549 cells at 0.20 uM after 72 hrs by MTT assay. The class given is functional, cell-based.
For series [10], the system named is A549. As to the kind of experiment: Antiproliferative activity against human A549 cells at 0.20 uM after 72 hrs by MTT assay in presence of 0.40 uM 3,4-dimethoxycinnamic acid. It is filed as functional, cell-based.
Series [11] is described as follows: Induction of apoptosis in human L02 cells assessed as reactive oxygen species formation at 30 uM after 48 hrs by DCFH-DA staining based fluorescence microscopic analysis. The conditions noted are these: l02, 48 h. The class given is cell-based.
In series [12] the test system is A549. Briefly: Induction of reactive oxygen species generation in human A549 cells at 30 uM measured for 20 hrs by DCFH-DA staining based fluorescence assay in presence of 3 uM DFO. It is filed as functional, cell-based.
The subject of series [13] is A549. Briefly: Induction of apoptosis in human A549 cells assessed as nuclei blebbing at 30 uM after 48 hrs by Hoechst 33258 staining based fluorescence microscopic analysis. It is filed as functional, cell-based.
For series [14], the system named is A549. As to the kind of experiment: Induction of apoptosis in human A549 cells assessed as nuclei blebbing at 10 uM after 48 hrs by Hoechst 33258 staining based fluorescence microscopic analysis. It is filed as functional, cell-based.
Series [15] has as its system A549. Briefly: Induction of apoptosis in human A549 cells assessed as nuclei blebbing at 3 uM after 48 hrs by Hoechst 33258 staining based fluorescence microscopic analysis. It is filed as functional, cell-based.
Series [16] has as its system A549. As to the kind of experiment: Induction of apoptosis in human A549 cells assessed as cell shrinkage at 10 uM after 48 hrs by Hoechst 33258 staining based fluorescence microscopic analysis. It is filed as functional.
The subject of series [17] is A549. Briefly: Induction of apoptosis in human A549 cells assessed as early apoptotic cells at 3 uM after 48 hrs by Annexin V-FITC/propidium iodide staining based flow cytrometric analysis (reference value: 0.63%). The class given is functional.
Series [18] has as its system A549. As to the kind of experiment: Induction of apoptosis in human A549 cells assessed as nuclear rounding at 30 uM after 48 hrs by Hoechst 33258 staining based fluorescence microscopic analysis. It is filed as functional, cell-based.
Series [19] deals with A549. Briefly: Induction of apoptosis in human A549 cells assessed as nuclear rounding at 3 uM after 48 hrs by Hoechst 33258 staining based fluorescence microscopic analysis. It is filed as functional, cell-based.
For series [20], the system named is A549. As to the kind of experiment: Cytotoxicity against human A549 cells assessed as cell viability at 3 to 30 uM after 48 hrs by MTT assay in presence of 3 uM DFO. It is filed as functional, cell-based.
Series [21] has as its system A549. Briefly: Induction of apoptosis in human A549 cells assessed as early apoptotic cells at 30 uM after 48 hrs by Annexin V/propidium iodide staining based flow cytometric analysis in presence of 3 uM DFO (reference value: 0.63%). The class given is functional. (In flow cytometry, cells or beads pass a laser one at a time.)
The subject of series [22] is A549. Briefly: Induction of apoptosis in human A549 cells assessed as cell viability at 3 to 30 uM after 48 hrs by MTT assay in presence of 5 mM NAC. It is filed as functional, cell-based.
Series [23] can be described thus: Induction of apoptosis in human L02 cells assessed as reactive oxygen species formation at 10 uM after 48 hrs by DCFH-DA staining based fluorescence microscopic analysis. It is filed as cell-based. Particulars: l02, 48 h.
Series [24] has as its system A549. As to the kind of experiment: Induction of apoptosis in human A549 cells assessed as cell shrinkage at 30 uM after 48 hrs by Hoechst 33258 staining based fluorescence microscopic analysis. It is filed as functional.
Series [25] is described as follows: Induction of apoptosis in human L02 cells assessed as reactive oxygen species formation at 30 uM measured for 20 hrs by DCFH-DA staining based FLIPR assay. It is filed as cell-based. Particulars: l02, 20 h.
Series [26] deals with A549. As to the kind of experiment: Induction of apoptosis in human A549 cells assessed as early apoptotic cells at 10 uM after 48 hrs by Annexin V-FITC/propidium iodide staining based flow cytrometric analysis (reference value: 0.63%). It is filed as functional.
In series [27] the test system is A549. As to the kind of experiment: Induction of apoptosis in human A549 cells assessed as early apoptotic cells at 30 uM after 48 hrs by Annexin V/propidium iodide staining based flow cytrometric analysis in presence of 5 mM NAC (reference value: 0.63%). It is filed as functional.
Series [28] relates to A549. Briefly: Induction of apoptosis in human A549 cells assessed as cell shrinkage at 3 uM after 48 hrs by Hoechst 33258 staining based fluorescence microscopic analysis. It is filed as functional.
Series [29] deals with A549. Briefly: Induction of apoptosis in human A549 cells assessed as early apoptotic cells at 30 uM after 48 hrs by Annexin V/propidium iodide staining based flow cytometric analysis in the absence of 3 uM DFO (reference value: 0.63%). The class given is functional.
The subject of series [30] is A549. As to the kind of experiment: Induction of apoptosis in human A549 cells assessed as early apoptotic cells at 30 uM after 48 hrs by Annexin V-FITC/propidium iodide staining based flow cytrometric analysis (reference value: 0.63%). The class given is functional.
In series [31] the test system is A549. As to the kind of experiment: Induction of apoptosis in human A549 cells assessed as nuclear rounding at 10 uM after 48 hrs by Hoechst 33258 staining based fluorescence microscopic analysis. The class given is functional, cell-based.
The subject of series [32] is A549. As to the kind of experiment: Induction of apoptosis in human A549 cells assessed as early apoptotic cells at 30 uM after 48 hrs by Annexin V/propidium iodide staining based flow cytrometric analysis in absence of 5 mM NAC (reference value: 0.63%). The class given is functional.
The test system of series [33] is A549. As to the kind of experiment: Induction of apoptosis in human A549 cells assessed as reactive oxygen species formation after 48 hrs by DCFH-DA staining based fluorescence microscopic analysis. It is filed as functional, cell-based.
In series [34] the test system is A549. Briefly: Induction of apoptosis in human A549 cells after 48 hrs by Annexin V-FITC/propidium iodide staining based flow cytometric analysis. The class given is functional, cell-based.
In series [35] the test system is A549. Briefly: Induction of apoptosis in human A549 cells assessed as reactive oxygen species formation at 30 uM by DCFH-DA staining based FLIPR assay. It is filed as functional, cell-based. The conditions noted are these: TDE = time-dependent effect.
For series [36], the system named is A549. Briefly: Antiproliferative activity against human A549 cells at 0.40 uM after 72 hrs by MTT assay in presence of 0.20 uM 9alpha-DHA. The class given is functional, cell-based.
Series [37] deals with A549. As to the kind of experiment: Antiproliferative activity against human A549 cells at 0.40 uM after 72 hrs by MTT assay. The class given is functional, cell-based.

Broadly, the IC50 is the concentration needed to halve the response being measured. Low values mean greater potency, high ones weaker potency. Turning to `COc1ccc(/C=C/C(=O)O[C@@H]2O[C@@H]3O[C@@]4(C)CC[C@H]5[C@H](C)[C@H](OC(=O)/C=C/c6ccc(OC)c(OC)c6OC)C[C@@H]([C@H]2C)[C@@]35OO4)c(OC)c1OC`, the IC50 in series [1] turned out to be 16.6 µM; in series [2] it was 19.6 µM; in series [3], 57.9 µM; in series [4], 1.66 µM; in series [5], 2.95 µM. The “Ratio IC50” value in series [6] came to 34.88.

In the case of `COc1cccc(/C=C/C(=O)O[C@@H]2O[C@@H]3O[C@@]4(C)CC[C@H]5[C@H](C)[C@H](OC(=O)/C=C/c6cccc(OC)c6)C[C@@H]([C@H]2C)[C@@]35OO4)c1`, in [7], the degraded is 1%. In addition, the IC50 in series [1] amounted to 18.2 µM; in series [2], 16.2 µM; in [4] it was 0.8 µM; in series [5], 43.9 µM. Further, the Stability result in series [8] is “Stable”.

With `C[C@@H]1[C@H](OC(=O)/C=C/c2ccc(Cl)cc2)C[C@H]2[C@@H](C)[C@H](OC(=O)/C=C/c3ccc(Cl)cc3)O[C@@H]3O[C@@]4(C)CC[C@@H]1[C@]32OO4`, the degraded in [7] amounted to 1%. Further, the IC50 in series [1] was found to be 58.3 µM; in series [2], 21.3 µM; in series [4], 1.5 µM; in [5], 6.76 µM. In addition, the Stability result in series [8] is reported as “Stable”.

As for `C[C@H]1[C@@H](O)O[C@@H]2O[C@@]3(C)CC[C@H]4[C@H](C)CC[C@@H]1[C@@]24OO3` [ARTENIMOL], in series [7], the Stability entry is given as “Unstable”. Further, the IC50 in series [1] is 21.9 µM; in [2], greater than 100 µM; in series [3] it was 146 µM; in series [4], 80.4 µM; in series [5], greater than 100 µM. Also, the “Ratio IC50” value in [6] came out at 1.81.

As for `C[C@@H]1[C@H](OC(=O)/C=C/c2ccccc2)C[C@H]2[C@@H](C)[C@H](OC(=O)/C=C/c3ccccc3)O[C@@H]3O[C@@]4(C)CC[C@@H]1[C@]32OO4`, the degraded in series [7] is 1%. In addition, the IC50 was 18 µM in series [1], 12.8 µM in series [2], 4.42 µM in series [4] and 36 µM in series [5]. Further, the Stability result in series [8] is “Stable”.

Consider `C[C@@H]1[C@H](O)C[C@H]2[C@@H](C)[C@@H](O)O[C@@H]3O[C@@]4(C)CC[C@@H]1[C@]32OO4`, for which the outcome in series [9] and in series [10] was inactive. The IC50 in [1] is 57.8 µM; in [2] it was greater than 100 µM; in series [4] it was greater than 100 µM; in series [5], greater than 100 µM.

Turning to `COc1ccc(/C=C/C(=O)O[C@@H]2O[C@@H]3O[C@@]4(C)CC[C@H]5[C@H](C)[C@H](OC(=O)/C=C/c6ccc(OC)c(OC)c6)C[C@@H]([C@H]2C)[C@@]35OO4)cc1OC`, the result in series [9], in series [13], in [14], in [15], in series [16] and in series [18] was Active. The outcome in series [19], in series [24], in series [28] and in [31] was Active. Also, the Activity entry is listed as “Non-toxic” in series [11]; 4.33% in [17]; 2.17% in series [21]; “Non-toxic” in series [23]; “Non-toxic” in series [25]; 14.01% in series [26]. Besides, the Activity is 4.71% in [27]; 16.88% in series [29]; 16.88% in series [30]; 16.88% in series [32]; “Dose-dependent effect” in [33]; “Dose-dependent effect” in series [34]. Besides, in [35], the Activity entry is “tde”. Moreover, the result in series [12], in [20] and in [22] was inactive. In addition, the IC50 was 6.23 µM in series [1]; 4.94 µM in series [2]; 80.2 µM in [3]; 0.2 µM in [4]; 22.7 µM in series [5]. Further, the “Ratio IC50” value in series [6] amounted to 401.25.

Turning to `COc1cc(/C=C/C(=O)O[C@@H]2O[C@@H]3O[C@@]4(C)CC[C@H]5[C@H](C)[C@H](OC(=O)/C=C/c6cc(OC)c(OC)c(OC)c6)C[C@@H]([C@H]2C)[C@@]35OO4)cc(OC)c1OC`, the degraded in series [7] is 1%. Further, the IC50 in series [1] stood at 5.33 µM; in series [2] it was 11.8 µM; in series [3], 58.6 µM; in [4] it was 0.5 µM; in [5], 17.2 µM. Also, the Stability result in [8] is on record as “Stable”. Moreover, the “Ratio IC50” value in series [6] is recorded as 117.3.

Take `COc1ccc(/C=C/C(=O)O)cc1OC`: the outcome in series [36] and in [37] was inactive.
